Where two headings read alike, the source gives them in different places.
Columns and labels:
MDA-MB-231 cells = assay: FACS MC540/propidium iodide apoptosis assay; type: cell-based, human; conditions: 24 hours
Method: Fluorescence activated cell sorting (FACS) was used to sort MDA-MB-231 cells (breast cancer cells expressing EGF-Rc). The cells were treated with either PBS EFG-Genistein (0.1, 1, and 10 μM) or unconjugated Geninstein (1, 10, and 100 μM) and incubated for 24 hours. The cells were then stained with MC-540 and propidium iodide. Single MC540 fluorescence (S-MC540) indicates the cell is at an early stage of apoptosis. Dual MC540/propidium iodide fluorescence (D-MC540/PI) indicates the cell is at an advanced stage of apoptosis. The total apoptotic fraction (TAF) is calculated as the percentage of MC540 fluorescent cells plus the percentage of MC540/propidium iodide double fluorescent cells.

[1] = system: human breast cancer (MDA-MB-231) xenografts; type: in vivo; conditions: 100 μg/kg/day intraperitoneally for 10 days, followed 20 days, vs PBS or unconjugated Genistein
Method: The tumor diameter was determined daily for 20 days from the start of therapy. Control mice were treated with 0.2 ml of PBS for 10 consecutive days or unconjugated Genistein at a concentration of 500 μg/kg/day for 10 days. P values were determined using Student's t test.

[2] = system: Neu mediated mammary tumors; assay: Prevention of spontaneous breast cancer in Neu/erbB2 transgenic mice; type: in vivo
Method: Neu/erbB2 transgenic mice were chosen because they overexpress the Neu protooncogene in their mammary glands.
As a control, 29 Neu/erbB2 mice were treated with PBS.

| Substance | % S-MC540 (Single MC540, early stage of apoptosis) (MDA-MB-231 cells; 0.1 μM) | % TAF (total apoptotic fraction: Single MC540 plus Dual MC540/propidium iodide) (MDA-MB-231 cells; 0.1 μM) | % D-MC540/PI (Dual MC540/propidium iodide, advanced stage of apoptosis) (MDA-MB-231 cells; 1 μM) | % S-MC540 (Single MC540, early stage of apoptosis) (MDA-MB-231 cells; 1 μM) | % TAF (total apoptotic fraction: Single MC540 plus Dual MC540/propidium iodide) (MDA-MB-231 cells; 1 μM) | % D-MC540/PI (Dual MC540/propidium iodide, advanced stage of apoptosis) (MDA-MB-231 cells; 10 μM) | % S-MC540 (Single MC540, early stage of apoptosis) (MDA-MB-231 cells; 10 μM) | % TAF (total apoptotic fraction: Single MC540 plus Dual MC540/propidium iodide) (MDA-MB-231 cells; 10 μM) | tumor progression (tumor diameter) ([1]; 0.5 cm xenograft, FIG. 3A) | tumor progression (tumor diameter) ([1]; 1.0 cm xenograft, FIG. 3B) | side effects ([2]; 100 μg 1× per week for 10 weeks) | mice that developed breast cancer ([2]; 100 μg subcutaneously 1× per week for 10 weeks (5 mg/kg), from 4 months old, n=10) | % D-MC540/PI (Dual MC540/propidium iodide, advanced stage of apoptosis) (MDA-MB-231 cells; 100 μM) | % S-MC540 (Single MC540, early stage of apoptosis) (MDA-MB-231 cells; 100 μM) | % TAF (total apoptotic fraction: Single MC540 plus Dual MC540/propidium iodide) (MDA-MB-231 cells; 100 μM) |
| --- | --- | --- | --- | --- | --- | --- | --- | --- | --- | --- | --- | --- | --- | --- | --- |
| EGF-Genistein: Genistein conjugated to epidermal growth factor (EGF), prepared as in Example 1 of U.S. Pat. No. 5,911,995 | 78.8% | 98.7% | 36.6% | 61.0% | 97.6% | 56.7% | 42.2% | 98.9% | reversed | slowed | not associated with any side effects | 40% | – | – | – |
| EGF: Human epidermal growth factor, six kilodalton 53 amino acid single-chain polypeptide | – | – | 0.8% | 5.5% | 6.3% | 1.2% | 9.5% | 10.7% | – | – | – | – | 2.0% | 13.5% | 15.5% |

Source: patent US20020193319A1, “Use of EGF genistein to prevent development of EGF-receptor expressing cancers” (Parker Hughes Institute, priority 1999, published 2002)
